From patent US20230339835A1, “2,3,5-TRIMETHYL-6-NONYLCYCLOHEXA-2,5-DIENE-1,4-DIONE FOR SUPPRESSING AND TREATING ALPHA-SYNUCLEINOPATHIES, TAUOPATHIES, AND OTHER DISORDERS” (PTC THERAPEUTICS, INC., priority 2018, published 2023)
Where two headings read alike, the source gives them in different places.

Experiments:
[1] = Brain and plasma exposure of C9 in mice after oral dosing; assay type: in vivo; conditions: mouse, 300 mg/kg PO in sesame oil, C57BL/6 mice
Experimental: A 300 mg/kg dose of C9 was administered as a sesame oil solution via oral gavage to four C57BL/6 mice. Eight hours after compound administration, plasma and brain exposure were measured (Table 10).

[2] = Light sensitivity of C9 solutions; assay type: physicochemical; conditions: room light wavelengths <450 nm
Text: The compounds of this invention can be prepared from readily available starting materials using general methods and procedures that will be apparent to one skilled in the art in view of the disclosure provided herein. It will be appreciated that where typical or preferred process conditions (i.e., reaction temperatures, times, mole ratios of reactants, solvents, pressures, etc.) are given, other process conditions can also be used unless otherwise stated. Optimum reaction conditions may vary with the particular reactants or solvent used, but such conditions can be determined by one skilled in the art by routine optimization procedures. […] If amber lighting is not available, then appropriate controls should be used to minimize solutions to light exposure e.g. aluminum foil wrapping, amber glassware
Test solutions on 1 g scale determined that 75-85% IPA/water gave good solubility (˜10:1 vol:wt), fine crystals that were filterable and solutions that could be heated and cooled to produce a predictable melt/crystallization. […] A hot filtration was required as a brown, material formed during crystallization when the solution was left exposed to room light for >1 h. This was only observed with the solution was exposed to light. Recovery was 92.7% of fine needles and UHPLC analysis of the supernatant was 91% a/a vs 99% for the solid indicating the supernatant was removing impurities. […]

[3] = test system: C57Bl/6 mice, MPTP-induced model of PD; test: Mouse MPTP model of Parkinson's Disease, open field locomotor assay; assay type: in vivo; conditions: 300 mg/kg PO QD Day -2 to Day 7, MPTP 60 mg/kg, Day 7
Text: Animals. Species: Mouse. Strain: C57Bl/6. Source of Animals: Charles River. Age: 6 to 7 weeks. Sex: Male. Randomization: Animals were assigned randomly to treatment groups. Blinding of Study: Experimenters were blinded to the experimental treatments
Housing and Feeding. Acclimation/Conditioning: Not less than three days. Housing: Mice were housed on a 12 hr light/dark cycle (lights on 6:00 AM) No more than 4 mice per cage. Ventilated cage rack system. Diet: Standard rodent chow and water ad libitum.
Design Parameters. Route(s) of administration: PO. Dose Volume: PO: 5 mL/kg. Formulation(s): formulated by Melior according to directions from BioElectron. Vehicle-sesame oil (Spectrum Chemical, NF Catalog #SE130, CAS #8008-74-0). Dose Levels: 300 mg/kg. Dose Frequency: QD starting Day −2 (MPTP=Day 0) and until Day 7. Study duration: 11 days. Pretreatment time (up to 2 hrs): For Day 0 (MPTP Day): 30 min, Pretreatment time for Open Field Assay/Locomotor Activity (OFA/LMA) assay: 1 hr. Number of Groups: 3. Number of animals per group: 10. Total number of animals: 30 (in the study), 42 animals total (To ensure a proper power analysis of at least 10 animals/group, for all groups receiving MPTP, 4 additional animals were added to mitigate study impacts if there were MPTP-induced fatalities).
MPTP Treatment. MPTP was formulated in phosphate buffered saline and administered to mice three times at a dose of 20 mg/kg (1 mg/mL delivered at 20 mL/kg) at two-hour intervals (final dose of MPTP=60 mg/kg).
Locomotor activity. One day prior (baseline) and on Day 7 after MPTP administration (Day (−1) and Day 7), mice were monitored for various aspects of locomotor function using a fully automated open-field apparatus (Med-Associates, Inc). The apparatus consisted of a 10.75″×10.75″ arena enclosed in a sound-attenuated box, equipped with the fan and house light. […]
Data analysis. Data were averaged and are expressed as the average±SEM.
Data were analyzed by one-way ANOVA followed by a post-hoc tests. p-values of less than 0.05 were considered to be statistically significant from control.

## CCCCCCCCCC1=C(C)C(=O)C(C)=C(C)C1=O [Compound C9, 2,3,5-trimethyl-6-nonylcyclohexa-2,5-diene-1,4-dione]
[1]; brain and plasma, read-out: Brain:Plasma Ratio
  Kp at 8 h: 7
[1]; brain, read-out: C9 [Brain]
  concentration at 8 h: 27900 ng/g
[1]; plasma, read-out: C9 [Plasma]
  concentration at 8 h: 3830 ng/mL
[2]
  light sensitivity of solutions: light sensitive
[3]; MPTP+Vehicle vs. MPTP+C9 p<0.001
  open field locomotor assay (vertical time): restored vertical time
[3]; MPTP+Vehicle vs. MPTP+C9 p<0.01
  open field locomotor assay (vertical counts): restored vertical counts
